Reference: patent publication US11464780B2, “Pyrazolopyrimidine derivative and use thereof” (Simcere Pharmaceutical Co. Ltd., priority 2018, dated 2022)
Read-outs that look alike come from different tables or passages of the source.

Assays:
Ros1 = biological target: T1, Ros1 (Homo sapiens, UniProt P08922); assay: Kinase inhibitory activity (33P-ATP filter binding, Reaction Biology Corp.); assay type: biochemical; conditions: read-out: The half maximal inhibitory concentration IC50 on the kinases, Ros1
T1 construct: purchased Reaction Biology Corp. (contract assay)
T1 sequence (P08922 28-2347): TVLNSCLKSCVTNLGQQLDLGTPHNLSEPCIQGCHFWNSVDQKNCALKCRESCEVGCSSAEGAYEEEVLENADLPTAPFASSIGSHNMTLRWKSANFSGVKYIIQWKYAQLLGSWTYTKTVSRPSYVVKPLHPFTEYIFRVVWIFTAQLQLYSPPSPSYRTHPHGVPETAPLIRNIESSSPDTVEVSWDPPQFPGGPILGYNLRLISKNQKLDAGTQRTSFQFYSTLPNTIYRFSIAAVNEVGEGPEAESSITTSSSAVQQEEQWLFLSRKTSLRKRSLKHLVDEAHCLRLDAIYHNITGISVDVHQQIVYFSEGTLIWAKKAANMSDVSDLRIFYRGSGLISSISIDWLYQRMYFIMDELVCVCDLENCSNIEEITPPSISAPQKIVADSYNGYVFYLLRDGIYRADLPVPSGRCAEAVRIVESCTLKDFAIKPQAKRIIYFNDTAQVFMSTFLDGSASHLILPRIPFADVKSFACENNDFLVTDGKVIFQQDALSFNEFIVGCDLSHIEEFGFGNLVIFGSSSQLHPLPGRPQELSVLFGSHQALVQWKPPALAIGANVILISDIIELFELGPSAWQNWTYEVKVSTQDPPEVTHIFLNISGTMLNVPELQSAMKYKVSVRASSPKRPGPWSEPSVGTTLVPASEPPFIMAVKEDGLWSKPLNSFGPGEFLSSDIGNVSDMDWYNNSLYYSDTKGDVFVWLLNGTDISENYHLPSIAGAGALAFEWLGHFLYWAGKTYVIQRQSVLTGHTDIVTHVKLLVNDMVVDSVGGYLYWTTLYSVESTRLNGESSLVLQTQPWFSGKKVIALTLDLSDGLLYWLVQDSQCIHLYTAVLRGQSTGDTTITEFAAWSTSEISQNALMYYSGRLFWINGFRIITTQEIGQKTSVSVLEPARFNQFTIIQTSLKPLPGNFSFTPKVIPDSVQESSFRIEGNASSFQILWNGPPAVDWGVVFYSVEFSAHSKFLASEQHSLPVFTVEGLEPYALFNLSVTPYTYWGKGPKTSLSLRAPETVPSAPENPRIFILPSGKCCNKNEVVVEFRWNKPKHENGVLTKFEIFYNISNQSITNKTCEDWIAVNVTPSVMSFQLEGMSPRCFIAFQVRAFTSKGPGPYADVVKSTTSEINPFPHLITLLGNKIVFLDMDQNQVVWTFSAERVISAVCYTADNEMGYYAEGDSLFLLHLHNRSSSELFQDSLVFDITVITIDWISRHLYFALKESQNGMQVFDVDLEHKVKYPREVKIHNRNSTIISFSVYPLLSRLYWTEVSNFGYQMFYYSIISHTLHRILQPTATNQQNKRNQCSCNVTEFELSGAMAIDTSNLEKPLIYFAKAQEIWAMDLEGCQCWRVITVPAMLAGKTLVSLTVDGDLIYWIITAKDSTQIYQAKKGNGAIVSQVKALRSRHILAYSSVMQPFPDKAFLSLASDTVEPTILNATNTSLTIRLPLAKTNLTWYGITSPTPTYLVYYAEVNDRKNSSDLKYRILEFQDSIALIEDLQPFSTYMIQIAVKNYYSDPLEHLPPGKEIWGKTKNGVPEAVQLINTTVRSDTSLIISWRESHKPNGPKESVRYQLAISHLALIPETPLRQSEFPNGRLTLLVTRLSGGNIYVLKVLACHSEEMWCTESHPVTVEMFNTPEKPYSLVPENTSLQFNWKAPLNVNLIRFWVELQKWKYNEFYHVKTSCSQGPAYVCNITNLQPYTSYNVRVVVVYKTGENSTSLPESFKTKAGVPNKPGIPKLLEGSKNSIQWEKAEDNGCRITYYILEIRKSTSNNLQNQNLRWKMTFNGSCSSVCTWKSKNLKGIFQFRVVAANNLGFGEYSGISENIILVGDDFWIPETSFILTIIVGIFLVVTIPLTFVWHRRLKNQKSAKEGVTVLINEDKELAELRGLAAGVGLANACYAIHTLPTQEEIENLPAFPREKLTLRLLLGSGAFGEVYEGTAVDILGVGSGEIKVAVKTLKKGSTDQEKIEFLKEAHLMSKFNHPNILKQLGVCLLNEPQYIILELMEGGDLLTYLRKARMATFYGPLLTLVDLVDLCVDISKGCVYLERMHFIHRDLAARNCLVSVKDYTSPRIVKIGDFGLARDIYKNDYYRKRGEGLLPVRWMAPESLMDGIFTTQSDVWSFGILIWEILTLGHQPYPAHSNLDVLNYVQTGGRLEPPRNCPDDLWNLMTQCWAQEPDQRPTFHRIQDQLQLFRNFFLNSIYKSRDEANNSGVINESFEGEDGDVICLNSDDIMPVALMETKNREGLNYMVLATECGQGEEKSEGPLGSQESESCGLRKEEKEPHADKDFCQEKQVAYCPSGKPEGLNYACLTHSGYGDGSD
Method: (§1) The mixture was incubated at room temperature for 20 minutes. To the reaction mixture was added a certain concentration of ^33P-ATP to initiate the reaction, and then the mixture was incubated at room temperature for 120 minutes. The radioactivities of the reactants were determined by the method of filter binding. The final kinase activity was expressed as the ratio of the remaining kinase activity in the test sample to the kinase activity in the DMSO control group. The dose-effect curve was fitted by GraphPad software and the IC50 was calculated.

TrkA = biological target: T2, TrkA (Homo sapiens, UniProt P04629); assay: as above; assay type: biochemical; conditions: read-out: The half maximal inhibitory concentration IC50 on the kinases, TrkA
T2 construct: purchased Reaction Biology Corp. (contract assay)
T2 sequence (P04629 33-796): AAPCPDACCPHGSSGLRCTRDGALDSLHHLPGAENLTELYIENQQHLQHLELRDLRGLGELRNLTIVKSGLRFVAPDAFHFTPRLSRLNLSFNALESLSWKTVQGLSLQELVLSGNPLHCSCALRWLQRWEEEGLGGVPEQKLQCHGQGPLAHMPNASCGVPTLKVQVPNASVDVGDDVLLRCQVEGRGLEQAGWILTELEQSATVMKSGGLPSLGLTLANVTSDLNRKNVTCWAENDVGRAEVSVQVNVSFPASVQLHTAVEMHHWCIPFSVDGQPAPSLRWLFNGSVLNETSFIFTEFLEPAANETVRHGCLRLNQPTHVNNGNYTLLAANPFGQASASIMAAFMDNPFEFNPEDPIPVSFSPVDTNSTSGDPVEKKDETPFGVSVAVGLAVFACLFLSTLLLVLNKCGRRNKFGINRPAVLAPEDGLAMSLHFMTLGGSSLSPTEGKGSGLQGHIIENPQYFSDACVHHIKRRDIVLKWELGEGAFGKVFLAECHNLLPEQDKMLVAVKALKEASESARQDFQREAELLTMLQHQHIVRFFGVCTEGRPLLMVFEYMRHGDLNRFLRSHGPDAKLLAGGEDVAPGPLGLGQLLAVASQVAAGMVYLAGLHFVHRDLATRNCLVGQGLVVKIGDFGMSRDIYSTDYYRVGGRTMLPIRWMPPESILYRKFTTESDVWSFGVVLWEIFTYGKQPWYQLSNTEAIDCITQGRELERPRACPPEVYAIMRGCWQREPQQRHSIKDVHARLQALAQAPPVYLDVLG
Method: as §1

TrkA-G595R = biological target: T3, TrkA-G595R (Homo sapiens, UniProt P04629, G595R); assay: as above; assay type: biochemical; conditions: read-out: The half maximal inhibitory concentration IC50 on the kinases, TrkA-G595R
T3 construct: purchased Reaction Biology Corp. (contract assay)
T3 sequence (P04629 33-796 G595R): as the sequence (P04629 33-796) above, with G563R counted along it
Method: as §1

TrkA-G667C = biological target: T4, TrkA-G667C (Homo sapiens, UniProt P04629, G667C); assay: as above; assay type: biochemical; conditions: read-out: The half maximal inhibitory concentration IC50 on the kinases, TrkA-G667C
T4 construct: purchased Reaction Biology Corp. (contract assay)
T4 sequence (P04629 33-796 G667C): as the sequence (P04629 33-796) above, with G635C counted along it
Method: as §1

TrkC = biological target: T5, TrkC (Homo sapiens, UniProt Q16288); assay: as above; assay type: biochemical; conditions: read-out: The half maximal inhibitory concentration IC50 on the kinases, TrkC
T5 construct: purchased Reaction Biology Corp. (contract assay)
T5 sequence (Q16288 32-839): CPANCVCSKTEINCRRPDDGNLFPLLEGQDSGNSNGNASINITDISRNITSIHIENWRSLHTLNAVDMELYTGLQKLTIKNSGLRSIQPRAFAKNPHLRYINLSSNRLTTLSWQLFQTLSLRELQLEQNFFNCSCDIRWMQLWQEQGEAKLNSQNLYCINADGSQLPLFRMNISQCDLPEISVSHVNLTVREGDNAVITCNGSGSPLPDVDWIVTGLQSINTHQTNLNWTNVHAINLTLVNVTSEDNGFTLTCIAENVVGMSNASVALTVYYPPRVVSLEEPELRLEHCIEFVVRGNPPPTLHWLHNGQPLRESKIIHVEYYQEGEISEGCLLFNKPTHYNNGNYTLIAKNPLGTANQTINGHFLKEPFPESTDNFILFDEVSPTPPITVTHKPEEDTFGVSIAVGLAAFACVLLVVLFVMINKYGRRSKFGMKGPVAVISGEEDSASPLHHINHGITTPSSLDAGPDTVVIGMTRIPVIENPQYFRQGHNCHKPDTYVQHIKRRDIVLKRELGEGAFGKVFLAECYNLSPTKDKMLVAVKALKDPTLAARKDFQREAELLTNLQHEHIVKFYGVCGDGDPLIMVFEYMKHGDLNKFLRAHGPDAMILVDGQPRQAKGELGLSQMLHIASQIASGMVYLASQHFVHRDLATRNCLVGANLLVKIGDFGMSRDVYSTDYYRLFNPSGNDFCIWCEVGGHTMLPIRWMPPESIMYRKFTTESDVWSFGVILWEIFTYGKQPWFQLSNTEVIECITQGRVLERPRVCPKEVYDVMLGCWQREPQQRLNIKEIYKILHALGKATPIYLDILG
Method: as §1

ALK = biological target: T6, ALK (Homo sapiens, UniProt Q9UM73); assay: as above; assay type: biochemical; conditions: read-out: The half maximal inhibitory concentration IC50 on the kinases, ALK
T6 construct: purchased Reaction Biology Corp. (contract assay)
Method: The inhibitory activities of the compounds on TrkA, TrkC, ALK, Ros1 and other kinases were determined by Reaction Biology Corp. To reaction buffer (20 mM Hepes (pH 7.5), 10 mM MgCl2, 1 mM EGTA, 0.02% Brij35, 0.02 mg/mL BSA, 0.1 mM Na3VO4, 2 mM DTT, 1% DMSO) were sequentially added a certain concentration of substrate, coenzyme factor, kinase and test compound (10 concentrations, 3-fold serial dilutions, DMSO at a final concentration of […]), and the mixture was mixed evenly. The mixture was incubated at room temperature for 20 minutes. To the reaction mixture was added a certain concentration of ^33P-ATP to initiate the reaction, and then the mixture was incubated at room temperature for 120 minutes. The radioactivities of the reactants were determined by the method of filter binding. The final kinase activity was expressed as the ratio of the remaining kinase activity in the test sample to the kinase activity in the DMSO control group. The dose-effect curve was fitted by GraphPad software and the IC50 was calculated.

[1] = biological target: T7, Ba/F3 LMNA-NTRK1-WT stably transfected cell line (Homo sapiens, UniProt P04629); assay: Cell proliferation inhibition (CellTiter-Glo); assay type: cell-based; conditions: 72 hours, read-out: The half maximal inhibitory concentration IC50 against cells, Ba/F3 LMNA-NTRK1-WT
T7 construct: fused on or other part: P02545 (Prelamin-A/C)
T7 sequence (P04629 whole entry, stated change not applied, the tested form may be a part): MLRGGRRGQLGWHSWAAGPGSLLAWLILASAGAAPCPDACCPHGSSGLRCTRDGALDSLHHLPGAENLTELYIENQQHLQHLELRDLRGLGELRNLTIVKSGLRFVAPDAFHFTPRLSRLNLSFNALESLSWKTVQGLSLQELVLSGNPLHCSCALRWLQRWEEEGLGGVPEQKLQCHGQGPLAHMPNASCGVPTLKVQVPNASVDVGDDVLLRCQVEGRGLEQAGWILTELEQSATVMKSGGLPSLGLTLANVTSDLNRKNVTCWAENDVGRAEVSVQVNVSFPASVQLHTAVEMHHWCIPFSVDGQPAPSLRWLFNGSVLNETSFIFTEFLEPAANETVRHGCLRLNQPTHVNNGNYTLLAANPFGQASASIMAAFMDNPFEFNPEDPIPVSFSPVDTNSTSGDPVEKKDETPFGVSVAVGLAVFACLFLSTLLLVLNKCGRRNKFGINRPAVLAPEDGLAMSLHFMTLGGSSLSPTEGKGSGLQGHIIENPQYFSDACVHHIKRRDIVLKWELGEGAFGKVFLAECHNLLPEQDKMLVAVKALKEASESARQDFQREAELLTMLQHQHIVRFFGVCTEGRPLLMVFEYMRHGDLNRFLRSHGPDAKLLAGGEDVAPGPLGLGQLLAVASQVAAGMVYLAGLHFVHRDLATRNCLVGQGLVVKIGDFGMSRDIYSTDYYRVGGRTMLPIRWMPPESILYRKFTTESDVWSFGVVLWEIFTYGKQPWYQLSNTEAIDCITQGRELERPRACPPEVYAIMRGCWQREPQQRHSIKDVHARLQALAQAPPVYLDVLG
Method: Adenosine Tri-Phosphate (ATP) is an energy carrier shared by various life activities in nature, and is the smallest unit of energy storage and transfer. The CellTiter-Glo™ cell viability detection kit uses luciferase as the detection substance, and luciferase requires the participation of ATP during the process of luminescence. CellTiter-Glo™ reagent is added to cell culture medium, and the luminescent intensity is measured. The luminescent signal is directly proportional to the amount of ATP in the system, and ATP is positively related to the number of living cells. Therefore, by using the CellTiter-Glo kit to detect ATP content, cell proliferation can be detected. In this assay, the cell line is Ba/F3 LMNA-NTRK1-WT stably transfected cell line, with 5000 cells/well.
IC50 Determination Process:
1. Cell Culture and Inoculation
a) the cells in the logarithmic growth phase were harvested, and counted with a platelet counter. Trypan blue exclusion method was used to detect cell viability to ensure the cell viability was no less than 90%.
b) the cell concentration was adjusted; 90 μL of cell suspension was added respectively into a 96-well plate.
c) the cells in the 96-well plates was cultured under conditions of 37° C., 5% CO2 and 95% humidity overnight.
2. Drug Dilution and Administration
a) 10-fold drug solutions were prepared, the highest concentration was 10 μM, 9 concentrations, 3-fold diluted (refer to Appendix I). 10 μL of each drug solution was added to each well of the 96-well plate seeded with the cells in triplicate.
b) the cells in the 96-well plate added with the drug were cultured under conditions of 37° C., 5% CO2 and 95% humidity for 72 hours, and then CTG (cell proliferation) was performed.
a) CellTiter-Glo™ reagent was thawed, and the cell plate was equilibrated at room temperature for 30 minutes.
b) CellTiter-Glo™ reagent of a same volume was added to each well;
c) the cell plate was shaken on an orbital shaker for 5 minutes to lyse the cells.
d) the cell plate was placed at room temperature for 20 minutes to stabilize the luminescent signal.
e) the luminescent intensity was read.
GraphPad Prism 5.0 software was used to analyze the data, nonlinear S-curve regression was used to fit the data to obtain dose-effect curve, and IC50 value was calculated therefrom.

[2] = biological target: T8, Ba/F3 LMNA-NTRK1-G595R stably transfected cell line (Homo sapiens, UniProt P04629, G595R, cells depend on it); assay: Cell proliferation inhibition (CellTiter-Glo); assay type: cell-based; conditions: 72 hours, read-out: The half maximal inhibitory concentration IC50 against cells, Ba/F3 LMNA-NTRK1-G595R
T8 construct: fused on or other part: P02545 (Prelamin-A/C)
T8 sequence (P04629 whole entry G595R, the tested form may be a part): as the sequence (P04629 whole entry, stated change not applied, the tested form may be a part) above, with G595R counted along it

[3] = biological target: T9, BaF3 ETV6-NTRK3-G623R stably transfected cell line (Homo sapiens, UniProt Q16288, G623R, cells depend on it); assay: Cell proliferation inhibition (CellTiter-Glo); assay type: cell-based; conditions: 72 hours, read-out: The half maximal inhibitory concentration IC50 against cells, BaF3 ETV6-NTRK3-G623R
T9 construct: fused on or other part: P41212 (Transcription factor ETV6)

[4] = In vivo pharmacokinetic test in mice; set-up: species or system male CD-1 mice; conditions: for Cmax: read-out: Peak concentration Cmax; for Vd: read-out: Apparent volume of distribution Vd; for AUC(0-t): read-out: Area under the curve AUC0-last; for half-life: read-out: Half life T1/2 (converted); for bioavailability: read-out: Bioavailability F %; for Tmax: read-out: Time of peak concentration Tmax
Method: Experimental object: male CD-1 mice aged 7-9 weeks were used as the experimental animals, the LC/MS/MS method was used to determine the drug concentrations in plasma at different time points after single intravenous (IV) and intragastric (PO) administration of the compounds, in vivo pharmacokinetic behaviors of the compounds of the present disclosure in mice were studied, and pharmacokinetic characteristics thereof were evaluated. Drug preparation: The compounds were prepared into clear solutions with 5% DMSO+10% solutol+85% water as solvent for administration in IV (intravenous) group and PO (intragastric). The dose of the compounds: IV dose of 3 mg/kg, and PO dose of […].

[5] = In vivo cassette pharmacokinetic test in mice; set-up: species or system male CD-1 mice; conditions: cassette, mice; for Apparent clearance Cl: IV @ 1 mpk
Method: The dose of the compounds: […] PO dose of 3 mg/kg, and administration volume of 3 mL/kg.

[6] = system: human colon cancer cell line KM12 subcutaneous xenograft tumor; assay: In vivo efficacy, subcutaneous xenograft tumor of human colon cancer KM12; set-up: species or system BALB/c mouse; conditions: PO
Method: Experimental object: evaluation of the in vivo efficacy of test drugs such as WX002A on subcutaneous xenograft tumor of human colon cancer cell line KM12 cell in BALB/c mouse model.
Drug preparation: The compounds were all prepared into clear solutions with 5% DMSO+10% solutol+85% water as solvent for administration in the PO (intragastric) group.
Tumor measurement: the tumor diameters were measured with a vernier caliper twice a week. The calculation formula of tumor volume is: V=0.5×a×b^2, wherein a and b represent the long diameter and short diameter of the tumor, respectively. The anti-tumor efficacy of the compounds is evaluated by TGI (%). TGI (%) reflects tumor growth inhibition rate.
Statistical analysis: The statistical analysis was based on the relative tumor volume and tumor weight at the end of the experiment using SPSS software. One-way ANOVA was used to analyze the comparison between multiple groups. […] P<0.05 was considered to indicate significant difference.

[7] = male, CD-1, mouse, plasma, IV dose of 3 mg/kg
[8] = male, CD-1, mouse, plasma, PO dose of 10 mL/kg vs IV 3 mg/kg
[9] = male, CD-1, mouse, plasma, PO dose of 10 mL/kg

O=C1NC2(CC2)COc2ccc(F)cc2[C@H]2CCON2c2ccn3ncc1c3n2 (single isomer, unassigned) [WX003A]
IC50 (Ros1): 0.15 nM | IC50 (TrkA): 2.66 nM | IC50 (TrkA-G595R): 3.59 nM | IC50 (TrkA-G667C): 3.04 nM | IC50 (TrkC): 0.06 nM | IC50 (ALK): 28.1 nM | GI50 [1]: 4.08 nM | GI50 [2]: 27.9 nM | GI50 [3]: 0.9 nM | Apparent clearance Cl ([4]; IV dose of 3 mg/kg): 10.8 mL/min/kg | Apparent volume of distribution Vd ([4]; IV dose of 3 mg/kg): 0.81 L/kg | Area under the curve AUC0-last ([4]; IV dose of 3 mg/kg): 12.216 µM·h | Half life T1/2 ([4]; IV dose of 3 mg/kg): 42 min | Area under the curve AUC0-last ([4]; PO dose of 10 mL/kg): 27.967 µM·h | Time of peak concentration Tmax ([4]; PO dose of 10 mL/kg): 22.8 min | Bioavailability F % ([4]; PO dose of 10 mL/kg vs IV 3 mg/kg): 69% | Cmax ([4]; PO dose of 10 mL/kg): 7.36 µM

O=C(Nc1cnn2ccc(N3CCC[C@@H]3c3cc(F)ccc3F)nc12)N1CC[C@H](O)C1 [LOXO-101, Larotrectinib, reference compound]
Apparent clearance Cl [5]: 22.7 mL/min/kg | drug concentration in cerebrospinal fluid at 0.5 hour CSF@0.5 h ([5]; PO @ 3 mpk, CSF): 15 nmol/kg | drug concentration in cerebrospinal fluid at 2 hour CSF@2 h ([5]; PO @ 3 mpk, CSF, 2 h): 3 nmol/kg | drug concentration in brain at 0.5 h Brain@0.5 h ([5]; PO @ 3 mpk): 40 nmol/kg | drug concentration in brain at 2 h Brain@2 h ([5]; PO @ 3 mpk, 2 h): 20 nmol/kg | Area under the curve AUC0-last ([4]; PO dose of 10 mL/kg): 2.89 µM·h | Time of peak concentration Tmax ([4]; PO dose of 10 mL/kg): 22.8 min | Cmax ([4]; PO dose of 10 mL/kg): 1.55 µM | T/C ([6]; high-dose group 60 mg/kg): 34.20% | TGI ([6]; high-dose group 60 mg/kg): 69.73%

C[C@H]1CNC(=O)c2cnn3ccc(nc23)N[C@H](C)c2cc(F)ccc2O1 [TPX-0005, reference compound]
Apparent clearance Cl [5]: 16.5 mL/min/kg | drug concentration in cerebrospinal fluid at 0.5 hour CSF@0.5 h ([5]; PO @ 3 mpk, CSF): 8 nmol/kg | drug concentration in brain at 0.5 h Brain@0.5 h ([5]; PO @ 3 mpk): 50 nmol/kg | drug concentration in brain at 2 h Brain@2 h ([5]; PO @ 3 mpk, 2 h): 41 nmol/kg | T/C ([6]; dose of 3 mg/kg): 16.80% | TGI ([6]; dose of 3 mg/kg): 87.46%

C[C@@H]1COc2ncc(F)cc2[C@H]2CCON2c2ccn3ncc(c3n2)C(=O)N1 [WX004A]
IC50 (Ros1): 0.94 nM | IC50 (TrkA): 14.3 nM | IC50 (TrkA-G595R): 38.5 nM | IC50 (TrkA-G667C): 42 nM | IC50 (TrkC): 0.41 nM | IC50 (ALK): 109 nM | GI50 [1]: 7.69 nM | GI50 [2]: 14.5 nM | GI50 [3]: 2.1 nM | Apparent clearance Cl ([4]; IV dose of 3 mg/kg): 10.4 mL/min/kg | Vd [4, 7]: 0.75 L/kg | AUC(0-t) [4, 7]: 12.5 µM·h | half-life [4, 7]: 44.4 min | bioavailability [4, 8]: 72% | AUC(0-t) [4, 9]: 29.6 µM·h | Cmax [4, 9]: 10.5 µM | Tmax [4, 9]: 30 min

O=C1NC2(COC2)COc2ncc(F)cc2[C@H]2CCON2c2ccn3ncc1c3n2 [WX006A]
IC50 (Ros1): 0.59 nM | IC50 (TrkA): 9.84 nM | IC50 (TrkA-G595R): 4.74 nM | IC50 (TrkA-G667C): 37.5 nM | IC50 (TrkC): 0.16 nM | IC50 (ALK): 79.2 nM | GI50 [1]: 23.5 nM | GI50 [2]: 19.4 nM | GI50 [3]: 5.4 nM | Apparent clearance Cl ([4]; IV dose of 3 mg/kg): 19.9 mL/min/kg | Vd [4, 7]: 1.01 L/kg | AUC(0-t) [4, 7]: 6.1 µM·h | half-life [4, 7]: 33.6 min | bioavailability [4, 8]: 72% | AUC(0-t) [4, 9]: 14.4 µM·h | Cmax [4, 9]: 8.78 µM | Tmax [4, 9]: 15 min

C[C@@H]1COc2ccc(F)cc2[C@H]2CCON2c2ccn3ncc(c3n2)C(=O)N1 [WX017A]
IC50 (Ros1): 0.82 nM | IC50 (TrkA): 13.4 nM | IC50 (TrkA-G595R): 37.1 nM | IC50 (TrkA-G667C): 26.3 nM | IC50 (TrkC): 0.3 nM | IC50 (ALK): 119 nM | Apparent clearance Cl ([4]; IV dose of 3 mg/kg): 17.8 mL/min/kg | Vd [4, 7]: 0.74 L/kg | AUC(0-t) [4, 7]: 7.34 µM·h | half-life [4, 7]: 42.6 min | bioavailability [4, 8]: 111% | AUC(0-t) [4, 9]: 26.7 µM·h | Cmax [4, 9]: 10.8 µM | Tmax [4, 9]: 37.8 min
